{"source": "paper PMC10874388", "about": "“Cyclic peptides discriminate BCL-2 and its clinical mutants from BCL-XL by engaging a single-residue discrepancy” (Nature Communications, 2024)", "assay_type_in_all_cases": "cell-based", "key": {"[1]": {"tested_on": "RS4:11 cells", "test": "Cell viability assay (CellTiter-Glo), RS4:11", "settings": "RS4:11, single wells", "method": "(§1) The cell lines Jurkat (TIB-152), El4 (TIB-39), Daudi (ccl-213), RS4:11 (crl-1873), A549 (ccl-185), HepG2 (hb-8065) and PANC-1 (crl-1469) were purchased from ATCC (American Type Culture Collection), and MGC-803 (C6582) was purchased from Beyotime (https://www.beyotime.com/product/C6582.htm). […] Daudi and RS4:11 cells were cultured in RPMI-1640 medium (HyClone, SH30809.01) and 10% FBS (Gibco, 10099-141), whereas HepG2, MGC-803 and PANC-1 cells were cultured in MDEM (HyClone, SH30243.01). Cells were maintained at 37 °C under a humidified, 5% (v/v) CO2-containing atmosphere.\n(§2) Cell viability was measured using CellTiter-Glo® 2.0 Reagent (Promega, G9242). […] After different inhibitors were added into serum-free medium and cultured for 4 h (RS4:11 for 6 h), FBS were supplemented to 10% and then incubated totally for 24 h or 48 h. Finally, the IC50 values were calculated based on measurements using a microplate reader (Thermo, Varioskan LUX). Statistical analysis was performed using software GraphPad Prism 7.0."}, "[2]": {"tested_on": "Jurkat cells", "test": "Apoptosis assay, Annexin V-FITC/PI staining and flow cytometry", "method": "Jurkat cells were seeded to 6-well plates at a density of 4 ×10^5 cells per well. Cells were incubated in the presence of DMSO, venetoclax at 2.5 μM, cp1-TAT at 30 μM, cp2-TAT at 30 μM, or cp3-TAT at 20 μM in serum-free RPMI medium for 4 h. After being incubated totally for 24 h, cells were washed once with PBS and stained with 100 μL binding buffer containing 5 μL Annexin V-FITC and 10 μL PI for 15 min, followed by addition of 400 μL binding buffer to detect cell apoptosis with FCM (BD FACSAria Fusion). Statistical analysis was performed using software FlowJo V10 and GraphPad Prism 7.0."}, "[3]": {"tested_on": "Jurkat cells", "test": "Mitochondrial membrane potential (JC-1), flow cytometry and fluorescence microscopy", "settings": "for Q1(%) / Q1(%)/Q3(%) / Q3(%): Figure 6d, 4h, replicate values; for ΔΨm (ratio of red over green fluorescence, Q1/Q3): 4 h treatment, JC-1, flow cytometry, n = 3", "method": "For the mitochondrial membrane potential (ΔΨm) analysis, the mitochondrial membrane potential assay kit with JC-1 dye (Beyotime, C2006) was used according to the manufacturer’s protocol. […] The value of ΔΨm was expressed as the ratio of red fluorescence intensity over green fluorescence intensity. After treated with JC-1, fluorescence intensity of Jurkat cells was tested by flow cytometry (BD FACSAria Fusion) and fluorescence microscopy (NIKON Ti-E), respectively. All experiments were performed in triplicate. Statistical analysis was performed using software GraphPad Prism 7.0."}, "[4]": {"tested_on": "PANC-1 cells", "test": "Cell viability assay (CellTiter-Glo), PANC-1", "settings": "PNAC-1, TAT control", "method": "as §1, §2\n(§3) Supplementary Figure 10 Functional mechanism of CPs. a. IC50 values of venetoclax against A549, MGC-803 and PANC-1 cells, measured after 48 h treatment by a CellTiter-Glo assay and calculated using Prism 7.0 by a nonlinear-fit method. Data are presented as mean ± s.d.; n= 6 biological replicates. b. […]\n(§4) Glo assay. Each data point represents the mean ± s.d. for 6 biological replicates.\n(§5) Supplementary Figure 11 IC50 values of different inhibitors against different cell lines. a-d. Viability of A549 (a), HepG2 (b), MGC-803 (c) and PANC-1 (d) cells treated with various concentrations of ABT-199 (venetoclax), and measured after 48 h by a CellTiter-Glo assay. e, f. Viability of Jurkat cells (e) and Daudi cells (f) treated with […]\n(§6) after 48 h by a CellTiter-Glo assay. Each data point represents the mean ± s.d. for 6 biological replicates.\n(§7) (1 picture or pasted object on this page, not shown here)"}, "[5]": {"tested_on": "A549 cells (control)", "test": "Cell viability assay (CellTiter-Glo), normal A549 (control)", "settings": "TAT control", "method": "as §1, §2"}, "[6]": {"tested_on": "A549 cells overexpressing BCL-2 WT", "test": "Cell viability assay, A549 stably overexpressing BCL-2 WT", "settings": "BCL2-WT A549, TAT control", "method": "as §2\n(§8) Lentivirus packaging vectors pMDLg/pRRE, pRSV-Rev, and pVSV-G were obtained from Prof. Han Jiahuai’s lab (Xiamen University). Lentiviruses were produced using 3rd-generation lentivirus packaging plasmids transiently transfected into HEK293T cells with the constructs of interest using 0.25 M CaCl2. Media was changed after 16 h, and supernatants containing infectious virus particles were harvested 24 h later. A second viral harvest was made following a further 24 h incubation with fresh media. Virus containing supernatant was filtered through a […], and stored at 4 °C or −80 °C until being used. Typically, A549 cells were seeded into 10 cm cell culture dishes at 4 ~ 8 × 10^5 cells/cm^2. An equivalent volume of virus containing culture medium was added along with polybrene (Sigma) to a final concentration of 10 µg/mL. Cells were incubated at 37 °C for 20 h, before they were washed and resuspended in fresh culture media. The expression level of BCL-2 was measured by qPCR and western blot methods."}, "[7]": {"tested_on": "MGC-803 cells", "test": "Cell viability assay (CellTiter-Glo), MGC-803", "settings": "TAT control", "method": "as §1, §2, §3, §4, §5, §6, §7"}, "[8]": {"tested_on": "A549 cells overexpressing BCL-2 G101V", "test": "Cell viability assay, A549 stably overexpressing BCL-2 G101V", "settings": "BCL2/G101V A549, TAT control", "method": "as §2, §8"}}, "note": "Values joined by “and” are separate entries in the source; they are usually repeats but may differ in a detail not shown here. Equal entries are not always repeated. Starred links: 1 amine or outer side, 2 acyl side, 3 side chain; linkers in the order of their positions; H or OH if unused. Positions of bridges follow the written chain, without caps; N, C: chain ends. Residues, ends and D or L forms follow the SMILES beside them. X1 = O=C(C[*:2])NCCNC(=O)c1ccc(C2=N[C@H](C(=O)[*:1])CS2)cc1", "data": [{"compound": "C[C@@H]1NC(=O)[C@@H]2CCCN2C(=O)[C@@H]2CSC(=N2)c2ccc(cc2)C(=O)NCCNC(=O)CSC[C@@H](C(=O)NCC(=O)N[C@@H](CO)C(=O)NCC(=O)N[C@@H](CO)C(=O)N[C@@H](CCCNC(=N)N)C(=O)N[C@@H](CCCCN)C(=O)N[C@@H](CCCCN)C(=O)N[C@@H](CCCNC(=N)N)C(=O)N[C@@H](CCCNC(=N)N)C(=O)N[C@@H](CCC(N)=O)C(=O)N[C@@H](CCCNC(=N)N)C(=O)N[C@@H](CCCNC(=N)N)C(=O)N[C@@H](CCCNC(=N)N)C(N)=O)NC(=O)[C@H](CCC(=O)O)NC(=O)[C@H](Cc2ccc(O)cc2)NC(=O)[C@H](CC(=O)O)NC(=O)[C@H](Cc2c[nH]c3ccccc23)NC(=O)CNC(=O)[C@H](Cc2ccc(O)cc2)NC(=O)[C@H](CCCNC(=N)N)NC1=O", "note": "[cp1-TAT] (PARYGWDYECGSGSRKKRRQRRR-NH2; linker N-10 via X1; C-terminus assumed)", "values": [{"measurement": "raw luminescence reading", "setting": "[1]; 0.0488281 uM", "result": "483100 and 539500 and 548500 and 508300 and 527200 and 488600"}, {"measurement": "raw luminescence reading", "setting": "[1]; 0.0976562 uM", "result": "528800 and 591800 and 582200 and 559700 and 554700 and 529500"}, {"measurement": "raw luminescence reading", "setting": "[1]; 0.195312 uM", "result": "524900 and 538800 and 551800 and 528900 and 518500 and 499500"}, {"measurement": "inhibition rate", "setting": "[1]; 0.195312 uM, 0.195312 µM", "result": "0.825% and -1.8% and -4.26% and 0.0693% and 2% and 5.62%"}, {"measurement": "raw luminescence reading", "setting": "[1]; 0.390625 uM", "result": "511700 and 533900 and 533200 and 520400 and 504300 and 479000"}, {"measurement": "raw luminescence reading", "setting": "[1]; 0.78125 uM", "result": "535400 and 544100 and 562800 and 550400 and 519400 and 494800"}, {"measurement": "raw luminescence reading", "setting": "[1]; 1.5625 uM", "result": "520400 and 578500 and 612400 and 550500 and 491200 and 506800"}, {"measurement": "raw luminescence reading", "setting": "[1]; 3.125 uM", "result": "414000 and 466800 and 497600 and 501300 and 428800 and 513500"}, {"measurement": "raw luminescence reading", "setting": "[1]; 6.25 uM", "result": "401900 and 468400 and 486300 and 500900 and 419400 and 497100"}, {"measurement": "raw luminescence reading", "setting": "[1]; 12.5 uM", "result": "380500 and 444100 and 470000 and 488300 and 390700 and 473300"}, {"measurement": "inhibition rate", "setting": "[1]; 12.5 uM, 12.5 µM", "result": 11, "unit": "%"}, {"measurement": "raw luminescence reading", "setting": "[1]; 25 uM", "result": "309300 and 375600 and 407800 and 416800 and 350200 and 401000"}, {"measurement": "inhibition rate", "setting": "[1]; 25 uM, 25 µM", "result": "42% and 29% and 23% and 21% and 34% and 24%"}, {"measurement": "raw luminescence reading", "setting": "[1]; 50 uM", "result": "222600 and 265500 and 282300 and 297300 and 246800 and 283000"}, {"measurement": "inhibition rate", "setting": "[1]; 50 uM, 50 µM", "result": "58% and 50% and 47% and 44% and 53%"}, {"measurement": "raw luminescence reading", "setting": "[1]; 100 uM", "result": "63070 and 74540 and 82840 and 89800 and 66010 and 86930"}, {"measurement": "inhibition rate", "setting": "[1]; 100 uM, 100 µM", "result": "88% and 86% and 84% and 83%"}, {"measurement": "cell apoptosis(%)", "setting": "[2]; Figure 6b, replicate values", "result": "66.77% and 60.2%"}, {"measurement": "Proportion of apoptotic cells", "setting": "[2]; Jurkat, 24 h, 30 μM", "result": 66.77, "unit": "%"}, {"measurement": "Q1(%)", "setting": "[3]", "result": "67.4% and 59.1% and 60.9%"}, {"measurement": "Q1(%)/Q3(%)", "setting": "[3]", "result": "5.861 and 3.177 and 3.421"}, {"measurement": "Q3(%)", "setting": "[3]", "result": "11.5% and 18.6% and 17.8%"}, {"measurement": "ΔΨm (ratio of red over green fluorescence, Q1/Q3)", "setting": "[3]; Jurkat", "result": 4.15}, {"measurement": "Relative ΔΨm by JC-1 fluorescence staining (microscopy)", "setting": "[3]; Jurkat, 24 h treatment (Supplementary Fig. 13)", "result": "slightly decreased"}]}, {"compound": "TAT (GSGSRKKRRQRRR)", "values": [{"measurement": "average (raw viability reading)", "setting": "[4]", "result": 639133}, {"measurement": "inhibition rate", "setting": "[4]; fraction, replicates", "result": "0.2393 and 0.182 and 0.1596 and 0.1507 and 0.1102 and 0.1321"}, {"measurement": "raw viability reading", "setting": "[4]; replicates", "result": "580400 and 624100 and 641200 and 648000 and 678900 and 662200"}, {"measurement": "average (raw viability reading)", "setting": "[5]; A549", "result": 422183}, {"measurement": "inhibition rate", "setting": "[5]; A549, fraction, replicates", "result": "0.1678 and 0.2197 and 0.2282 and 0.2003 and 0.1961 and 0.2135"}, {"measurement": "raw viability reading", "setting": "[5]; A549, replicates", "result": "409500 and 424300 and 426500 and 417300 and 441500 and 414000"}, {"measurement": "luminescence reading (raw, replicate wells)", "setting": "[5]; control A549", "result": "640800 and 544000 and 632800 and 539700 and 559000 and 590400"}, {"measurement": "luminescence reading, everage", "setting": "[5]; control A549, mean of 6 wells", "result": 584450}, {"measurement": "luminescence reading (raw, replicate wells)", "setting": "[6]", "result": "525300 and 568300 and 525100 and 556600 and 515500 and 559500"}, {"measurement": "luminescence reading, everage", "setting": "[6]; mean of 6 wells", "result": 541717}, {"measurement": "average (raw viability reading)", "setting": "[7]", "result": 627500}, {"measurement": "inhibition rate", "setting": "[7]; fraction, replicates", "result": "0.09219 and 0.04796 and 0.06436 and 0.05774 and 0.0275 and 0.04676"}, {"measurement": "raw viability reading", "setting": "[7]; replicates", "result": "622000 and 626400 and 646500 and 633700 and 603500 and 632900"}, {"measurement": "Q1(%)", "setting": "[3]", "result": "92.3% and 93.6% and 94.9%"}, {"measurement": "Q1(%)/Q3(%)", "setting": "[3]", "result": "22.1343 and 27.3684 and 32.6117"}, {"measurement": "Q3(%)", "setting": "[3]", "result": "4.17% and 3.42% and 2.91%"}, {"measurement": "ΔΨm (ratio of red over green fluorescence, Q1/Q3)", "setting": "[3]; Jurkat", "result": 27.37}, {"measurement": "luminescence reading (raw, replicate wells)", "setting": "[8]", "result": "540600 and 529300 and 534000 and 526600 and 523000 and 507100"}, {"measurement": "luminescence reading, everage", "setting": "[8]; mean of 6 wells", "result": 526767}]}]}
